Experiments:
Assay in all cases: KINOMEscan competition binding
Conditions in all cases: compound 10.0 µM
[1] = tested on: ABL1 (human), P00519 [E255K]
[2] = biological target: CDK4 CCND1 (human) (UniProt P11802+P24385)
[3] = biological target: CDK4 CCND3 (human) (UniProt P11802+P30281)
[4] = biological target: CRK2 (P.falciparum) (UniProt P61075)
[5] = biological target: CSNK1A1 (human) (UniProt P48729)
[6] = biological target: DYRK1A (human) (UniProt Q13627)
[7] = biological target: DYRK2 (human) (UniProt Q92630)
[8] = biological target: EGFR (human) (UniProt P00533)
[9] = tested on: EGFR (human), P00533 [P753S; 747-752 del]
[10] = biological target: EIF2AK1 (human) (UniProt Q9BQI3)
[11] = biological target: ERBB3 (human) (UniProt P21860)
[12] = tested on: FLT3 (human), P36888 [K663Q]
[13] = biological target: GRK1 (human) (UniProt Q15835)
[14] = biological target: GRK4 (human) (UniProt P32298)
[15] = biological target: HIPK3 (human) (UniProt Q9H422)
[16] = biological target: HIPK4 (human) (UniProt Q8NE63)
Sequence of HIPK4 (human) (Q8NE63 whole entry, looked up): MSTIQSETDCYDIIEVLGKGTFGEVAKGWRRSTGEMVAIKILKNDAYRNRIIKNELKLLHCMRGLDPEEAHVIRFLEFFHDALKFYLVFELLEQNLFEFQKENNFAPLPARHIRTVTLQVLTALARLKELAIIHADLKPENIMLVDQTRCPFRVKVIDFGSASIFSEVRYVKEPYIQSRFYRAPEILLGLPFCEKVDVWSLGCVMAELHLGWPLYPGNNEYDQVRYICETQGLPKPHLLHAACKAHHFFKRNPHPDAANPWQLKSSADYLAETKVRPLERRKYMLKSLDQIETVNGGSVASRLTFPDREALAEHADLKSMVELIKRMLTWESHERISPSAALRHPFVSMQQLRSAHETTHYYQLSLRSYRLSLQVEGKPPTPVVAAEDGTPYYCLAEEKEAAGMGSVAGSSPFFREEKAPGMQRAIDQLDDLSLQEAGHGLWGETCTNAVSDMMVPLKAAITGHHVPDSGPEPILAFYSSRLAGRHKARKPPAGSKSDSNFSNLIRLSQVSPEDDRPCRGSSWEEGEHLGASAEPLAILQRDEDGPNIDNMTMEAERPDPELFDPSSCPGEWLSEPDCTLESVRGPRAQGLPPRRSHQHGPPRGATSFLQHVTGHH

[17] = biological target: ICK (human) (UniProt Q9UPZ9)
[18] = biological target: IRAK1 (human) (UniProt P51617)
[19] = biological target: KIT (human) (UniProt P10721)
[20] = biological target: LRRK2 (human) (UniProt Q5S007)
[21] = biological target: MAK (human) (UniProt P20794)
[22] = biological target: MAP2K7 (human) (UniProt O14733)
[23] = biological target: MAP3K13 (human) (UniProt O43283)
[24] = biological target: MAP3K2 (human) (UniProt Q9Y2U5)
[25] = biological target: MAST1 (human) (UniProt Q9Y2H9)
[26] = biological target: MATK (human) (UniProt P42679)
[27] = biological target: NEK11 (human) (UniProt Q8NG66)
Sequence of NEK11 (human) (Q8NG66 whole entry, looked up): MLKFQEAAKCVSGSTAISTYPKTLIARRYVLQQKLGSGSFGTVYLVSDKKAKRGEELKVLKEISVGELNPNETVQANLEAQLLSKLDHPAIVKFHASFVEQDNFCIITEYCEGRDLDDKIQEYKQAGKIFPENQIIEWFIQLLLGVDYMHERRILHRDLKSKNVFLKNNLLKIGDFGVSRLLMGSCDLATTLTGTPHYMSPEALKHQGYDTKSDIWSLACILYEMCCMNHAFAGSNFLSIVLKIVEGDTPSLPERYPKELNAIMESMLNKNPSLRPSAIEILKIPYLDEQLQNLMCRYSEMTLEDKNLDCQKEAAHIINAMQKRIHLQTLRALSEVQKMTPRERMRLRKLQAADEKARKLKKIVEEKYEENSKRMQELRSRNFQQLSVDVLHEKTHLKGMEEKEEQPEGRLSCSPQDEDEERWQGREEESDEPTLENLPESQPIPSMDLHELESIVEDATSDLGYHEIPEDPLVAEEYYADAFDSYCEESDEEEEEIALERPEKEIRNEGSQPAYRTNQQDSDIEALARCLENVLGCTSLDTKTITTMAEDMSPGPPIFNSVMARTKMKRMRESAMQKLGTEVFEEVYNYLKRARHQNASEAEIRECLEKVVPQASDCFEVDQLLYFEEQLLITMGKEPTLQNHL

[28] = biological target: NEK3 (human) (UniProt P51956)
[29] = biological target: NEK4 (human) (UniProt P51957)
Sequence of NEK4 (human) (P51957 whole entry, looked up): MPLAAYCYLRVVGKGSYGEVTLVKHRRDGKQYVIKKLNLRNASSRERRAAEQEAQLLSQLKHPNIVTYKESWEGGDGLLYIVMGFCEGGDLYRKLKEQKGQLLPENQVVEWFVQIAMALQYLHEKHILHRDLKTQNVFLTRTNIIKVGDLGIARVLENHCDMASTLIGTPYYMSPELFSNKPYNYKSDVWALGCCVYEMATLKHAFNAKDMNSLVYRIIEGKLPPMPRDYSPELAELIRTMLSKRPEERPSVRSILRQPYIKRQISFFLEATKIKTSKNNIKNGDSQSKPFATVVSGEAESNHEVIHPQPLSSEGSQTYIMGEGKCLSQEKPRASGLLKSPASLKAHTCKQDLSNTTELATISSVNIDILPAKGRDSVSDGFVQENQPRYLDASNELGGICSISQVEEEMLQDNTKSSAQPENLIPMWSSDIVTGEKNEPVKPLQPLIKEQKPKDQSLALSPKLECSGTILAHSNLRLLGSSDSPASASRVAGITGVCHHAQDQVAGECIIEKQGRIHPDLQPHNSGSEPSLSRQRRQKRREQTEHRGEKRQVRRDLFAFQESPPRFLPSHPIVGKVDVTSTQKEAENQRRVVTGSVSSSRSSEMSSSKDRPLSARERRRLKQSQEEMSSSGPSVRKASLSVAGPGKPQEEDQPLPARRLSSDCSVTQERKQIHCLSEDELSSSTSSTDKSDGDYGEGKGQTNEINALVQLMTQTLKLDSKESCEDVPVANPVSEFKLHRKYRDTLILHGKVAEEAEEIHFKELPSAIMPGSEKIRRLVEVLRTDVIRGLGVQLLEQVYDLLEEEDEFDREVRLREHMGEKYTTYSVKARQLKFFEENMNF

[30] = biological target: OXSR1 (human) (UniProt O95747)
[31] = biological target: PIK3C2G (human) (UniProt O75747)
Sequence of PIK3C2G (human) (O75747 whole entry, looked up): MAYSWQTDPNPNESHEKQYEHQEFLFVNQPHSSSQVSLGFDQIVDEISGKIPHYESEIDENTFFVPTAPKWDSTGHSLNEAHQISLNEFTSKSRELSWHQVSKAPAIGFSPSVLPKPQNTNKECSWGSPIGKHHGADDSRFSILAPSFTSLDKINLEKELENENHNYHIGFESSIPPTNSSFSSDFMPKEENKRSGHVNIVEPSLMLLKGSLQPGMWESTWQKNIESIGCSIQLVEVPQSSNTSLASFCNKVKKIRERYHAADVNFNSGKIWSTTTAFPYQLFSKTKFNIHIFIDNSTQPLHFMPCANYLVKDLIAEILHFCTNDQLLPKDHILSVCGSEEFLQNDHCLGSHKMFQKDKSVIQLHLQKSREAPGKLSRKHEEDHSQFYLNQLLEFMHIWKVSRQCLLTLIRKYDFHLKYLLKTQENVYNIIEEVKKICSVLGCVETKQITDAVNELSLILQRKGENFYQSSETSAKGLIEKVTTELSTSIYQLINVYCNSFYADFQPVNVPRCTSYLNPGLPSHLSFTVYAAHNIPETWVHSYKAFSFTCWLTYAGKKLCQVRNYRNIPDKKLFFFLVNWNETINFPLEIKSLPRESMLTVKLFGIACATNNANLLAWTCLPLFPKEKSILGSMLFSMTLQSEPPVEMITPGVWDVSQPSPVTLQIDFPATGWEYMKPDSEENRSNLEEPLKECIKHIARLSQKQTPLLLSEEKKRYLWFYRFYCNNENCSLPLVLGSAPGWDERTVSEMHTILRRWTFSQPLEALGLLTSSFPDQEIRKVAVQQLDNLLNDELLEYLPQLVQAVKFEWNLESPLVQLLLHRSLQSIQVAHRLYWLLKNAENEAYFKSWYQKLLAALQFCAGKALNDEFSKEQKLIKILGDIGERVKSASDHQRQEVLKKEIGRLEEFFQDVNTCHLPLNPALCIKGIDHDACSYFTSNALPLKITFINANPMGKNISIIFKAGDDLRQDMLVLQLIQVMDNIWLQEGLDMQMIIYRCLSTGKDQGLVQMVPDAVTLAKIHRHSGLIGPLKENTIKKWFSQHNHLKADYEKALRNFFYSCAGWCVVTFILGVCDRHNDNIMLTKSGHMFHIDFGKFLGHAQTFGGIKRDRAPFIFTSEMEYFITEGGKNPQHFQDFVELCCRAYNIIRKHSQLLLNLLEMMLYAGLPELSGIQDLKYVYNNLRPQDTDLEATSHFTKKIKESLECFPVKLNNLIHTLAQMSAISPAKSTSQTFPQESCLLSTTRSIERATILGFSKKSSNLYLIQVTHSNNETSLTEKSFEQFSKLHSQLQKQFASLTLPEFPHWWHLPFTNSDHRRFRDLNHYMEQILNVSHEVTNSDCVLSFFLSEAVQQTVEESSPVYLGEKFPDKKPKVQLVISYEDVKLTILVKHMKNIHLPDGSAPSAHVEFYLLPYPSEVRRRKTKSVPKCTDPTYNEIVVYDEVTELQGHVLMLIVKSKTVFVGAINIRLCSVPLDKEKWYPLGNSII

[32] = biological target: PIK3CG (human) (UniProt P48736)
[33] = biological target: PKN3 (M.tuberculosis) (UniProt Q6P5Z2)
[34] = biological target: ROCK1 (human) (UniProt Q13464)
[35] = biological target: STK32A (human) (UniProt Q8WU08)
[36] = biological target: STK38 (human) (UniProt Q15208)
[37] = biological target: STK39 (human) (UniProt Q9UEW8)
[38] = biological target: TAOK2 (human) (UniProt Q9UL54)
[39] = biological target: TRPM6 (human) (UniProt Q9BX84)
[40] = biological target: YSK4 (human) (UniProt Q56UN5)

Sequence of ABL1 (human), P00519 [E255K] (P00519 whole entry E255K, looked up): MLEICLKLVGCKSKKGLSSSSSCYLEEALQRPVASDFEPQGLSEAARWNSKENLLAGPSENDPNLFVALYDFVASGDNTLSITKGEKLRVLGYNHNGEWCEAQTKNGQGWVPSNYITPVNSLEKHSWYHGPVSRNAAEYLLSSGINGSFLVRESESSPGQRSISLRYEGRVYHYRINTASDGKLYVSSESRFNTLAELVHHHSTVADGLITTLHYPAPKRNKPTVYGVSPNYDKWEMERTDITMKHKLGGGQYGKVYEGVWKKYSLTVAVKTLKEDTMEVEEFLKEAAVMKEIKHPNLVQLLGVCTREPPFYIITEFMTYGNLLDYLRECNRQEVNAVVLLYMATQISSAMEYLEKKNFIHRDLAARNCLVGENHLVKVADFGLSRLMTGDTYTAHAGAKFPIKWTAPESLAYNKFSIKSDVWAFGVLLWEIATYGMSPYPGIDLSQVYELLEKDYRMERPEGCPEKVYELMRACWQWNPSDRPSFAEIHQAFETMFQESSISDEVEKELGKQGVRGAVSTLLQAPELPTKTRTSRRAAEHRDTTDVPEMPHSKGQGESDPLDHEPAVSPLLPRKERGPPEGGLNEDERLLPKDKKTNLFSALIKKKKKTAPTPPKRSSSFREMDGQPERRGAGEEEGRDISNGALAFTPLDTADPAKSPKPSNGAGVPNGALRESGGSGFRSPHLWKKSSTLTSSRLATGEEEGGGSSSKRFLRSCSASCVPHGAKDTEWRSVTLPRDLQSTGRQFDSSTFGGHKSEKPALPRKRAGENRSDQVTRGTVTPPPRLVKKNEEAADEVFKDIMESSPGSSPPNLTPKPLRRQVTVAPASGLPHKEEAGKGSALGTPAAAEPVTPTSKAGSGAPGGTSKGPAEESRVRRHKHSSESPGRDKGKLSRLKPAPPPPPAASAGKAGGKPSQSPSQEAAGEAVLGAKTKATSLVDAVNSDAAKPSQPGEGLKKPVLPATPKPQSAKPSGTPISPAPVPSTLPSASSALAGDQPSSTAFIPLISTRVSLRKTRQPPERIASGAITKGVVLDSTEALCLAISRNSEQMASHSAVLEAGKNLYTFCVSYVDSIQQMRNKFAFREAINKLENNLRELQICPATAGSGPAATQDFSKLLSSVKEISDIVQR
Sequence of CRK2 (P.falciparum) (P61075 whole entry, looked up): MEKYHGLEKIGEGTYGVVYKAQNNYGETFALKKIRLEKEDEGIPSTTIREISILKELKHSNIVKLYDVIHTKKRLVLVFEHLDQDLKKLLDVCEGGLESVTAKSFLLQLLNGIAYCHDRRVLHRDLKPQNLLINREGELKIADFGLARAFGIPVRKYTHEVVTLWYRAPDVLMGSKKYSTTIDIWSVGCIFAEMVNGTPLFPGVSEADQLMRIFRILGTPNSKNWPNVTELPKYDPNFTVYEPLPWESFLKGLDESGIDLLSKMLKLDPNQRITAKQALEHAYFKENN

Compound: O=C(NC1CC1)c1cccc(-c2ccc3c(NC(=O)C4CC4)n[nH]c3c2)c1
- kinase still bound, per cent of control [1]: 55%
- kinase still bound, per cent of control [2]: 94%
- kinase still bound, per cent of control [3]: 82%
- kinase still bound, per cent of control [4]: 100%
- kinase still bound, per cent of control [5]: 100%
- kinase still bound, per cent of control [6]: 98%
- kinase still bound, per cent of control [7]: 36%
- kinase still bound, per cent of control [8]: 96%
- kinase still bound, per cent of control [9]: 96%
- kinase still bound, per cent of control [10]: 100%
- kinase still bound, per cent of control [11]: 69%
- kinase still bound, per cent of control [12]: 61%
- kinase still bound, per cent of control [13]: 100%
- kinase still bound, per cent of control [14]: 14%
- kinase still bound, per cent of control [15]: 62%
- kinase still bound, per cent of control [16]: 40%
- kinase still bound, per cent of control [17]: 13%
- kinase still bound, per cent of control [18]: 82%
- kinase still bound, per cent of control [19]: 37%
- kinase still bound, per cent of control [20]: 100%
- kinase still bound, per cent of control [21]: 51%
- kinase still bound, per cent of control [22]: 100%
- kinase still bound, per cent of control [23]: 64%
- kinase still bound, per cent of control [24]: 63%
- kinase still bound, per cent of control [25]: 94%
- kinase still bound, per cent of control [26]: 68%
- kinase still bound, per cent of control [27]: 95%
- kinase still bound, per cent of control [28]: 75%
- kinase still bound, per cent of control [29]: 100%
- kinase still bound, per cent of control [30]: 98%
- kinase still bound, per cent of control [31]: 100%
- kinase still bound, per cent of control [32]: 90%
- kinase still bound, per cent of control [33]: 15%
- kinase still bound, per cent of control [34]: 57%
- kinase still bound, per cent of control [35]: 78%
- kinase still bound, per cent of control [36]: 85%
- kinase still bound, per cent of control [37]: 99%
- kinase still bound, per cent of control [38]: 20%
- kinase still bound, per cent of control [39]: 100%
- kinase still bound, per cent of control [40]: 5.9%
